# Where two headings read alike, the source gives them in different places.
# Assays:
# [1] = target: TSPO; design: method as in PMID 25616581; conditions: cited from earlier work
# [2] = Plasma clearance and plasma metabolite analysis; assay type: in vivo, rat; conditions: Wistar, rat, in vivo, iv, metabolite-corrected plasma, intravenous injection, rats
# Procedure: PET scans with arterial blood sampling were performed in a different set of rats to generate input for pharmacokinetic modelling. For the arterial blood sampling a cannula was inserted into the femoral artery after induction of anaesthesia. The femoral vein was additionally cannulated for PET tracer injection. After cannulation, the rats were positioned in the camera and a transmission scan was acquired using a ^57Co point source. […] A 0.1 ml blood sample of was taken at 0, 5, 10, 15, 20, 30, 45, 60, 75, 90, 120, 180, 300, 450, 600, 900, 1,800 and 3,600 s after injection. A larger blood sample of 0.5 ml was taken at three time points (5, 15, 30 and/or 60 min) for metabolite analysis. After collection of each blood sample, heparinized saline was injected to prevent large changes in blood pressure. A 25 μl aliquot of whole blood was extracted from each sample for radioactivity measurement. The remainder of each sample was centrifuged at 13,000 rpm (15,996 g) for 8 min, and 25 μl plasma was taken for radioactivity measurement. The radioactivity in blood and plasma was measured with a gamma counter.
# Radioactive metabolites in plasma were measured using the extra blood samples taken at three time points during each scan (5, 15, 30 and/or 60 min). After centrifugation and collection of the plasma sample for radioactive measurement, as described above, the remaining plasma was diluted with acetonitrile (1.5 times the amount of plasma) and vortex-mixed. The plasma suspension was centrifuged at 5,300 rpm (3,030 g) for 3 min, and divided into supernatant and pellet. […] Fractions of 30 s were collected and measured in the gamma counter.
# The percentage of metabolites in plasma was calculated by fitting an exponential function to the values obtained from the HPLC analysis. The plasma values obtained from the blood samples during the PET scan were then corrected for the presence of these metabolites, and used together with the whole-blood curve for further analysis. Metabolite corrected plasma TACs were fitted for each individual rat using iterative nonlinear least-squares fitting to the biexponential equation: SUVt = Ae^−αt + Be^−βt, where SUVt is the plasma SUV at time t, α and β are the apparent distribution and elimination rate constants (s^−1), respectively, and A and B are the corresponding zero-time intercepts. The weighting factors were the reciprocals of the plasma SUV squared. Distribution and elimination half-lives (seconds) were calculated as the natural logarithm of 2 divided by α and β, respectively.
compound,measurement,setting,value
CCCN(CCC)C(=O)Cc1c(-c2ccc(O[11CH3])cc2)nc2c(Cl)cc(Cl)cn12 [[^11C]CB184],Ki,[1]; read-out: K i (TSPO affinity),0.54 nM
same,TSPO affinity relative to (R)-[^11C]PK11195,"[1]; times higher affinity, ratio of K i values",7.9 times
same,half-life,[2]; read-out: Distribution half-life in plasma (converted),0.283 min
same,half-life,[2]; read-out: Elimination half-life in plasma,44 ± 26 min

# Source: publication PMC4424274, “Evaluation of [^11C]CB184 for imaging and quantification of TSPO overexpression in a rat model of herpes encephalitis” (European Journal of Nuclear Medicine and Molecular Imaging, 2015)
